Columns and labels:
Pseudomonas putida (K) = assay: MBC (minimum bactericidal concentration) test in Wash NEXT reagent; assay type: cell-based
[1] = system: Pseudomonas aeruginosa (L); assay: as above; assay type: cell-based
[2] = at 72 hours, listed as Na Azide

Cc1cc(NS(=O)(=O)c2ccc(N)cc2)no1 [Sulfamethoxazole, sulfamethoxazole]
20: MBC test growth score (Pseudomonas putida (K); 40% preservative, 48 hour)
22: MBC test growth score (Pseudomonas putida (K); 30% preservative, 48 hour)
18: MBC test growth score (Pseudomonas putida (K); 60% preservative, 48 hour)
+/−: MBC test growth score (Pseudomonas putida (K); 10% preservative, 48 hour) | MBC test growth score (Pseudomonas putida (K); 10% preservative, 72 hour) | MBC test growth score (Pseudomonas putida (K); 20% preservative, 24 hour) | MBC test growth score (Pseudomonas putida (K); 20% preservative, 48 hour) | MBC test growth score (Pseudomonas putida (K); 30% preservative, 24 hour) | MBC test growth score (Pseudomonas putida (K); 40% preservative, 24 hour) | MBC test growth score (Pseudomonas putida (K); 50% preservative, 24 hour) | MBC test growth score (Pseudomonas putida (K); 60% preservative, 24 hour)
−: MBC test growth score (Pseudomonas putida (K); 20% preservative, 72 hour) | MBC test growth score (Pseudomonas putida (K); 30% preservative, 72 hour) | MBC test growth score (Pseudomonas putida (K); 40% preservative, 72 hour) | MBC test growth score (Pseudomonas putida (K); 50% preservative, 72 hour) | MBC test growth score (Pseudomonas putida (K); 60% preservative, 72 hour) | MBC test growth score (Pseudomonas putida (K); 70% preservative, 48 hour) | MBC test growth score (Pseudomonas putida (K); 70% preservative, 72 hour) | MBC test growth score (Pseudomonas putida (K); 80% preservative, 48 hour) | MBC test growth score (Pseudomonas putida (K); 80% preservative, 72 hour) | MBC test growth score (Pseudomonas putida (K); 90% preservative, 48 hour) | MBC test growth score (Pseudomonas putida (K); 90% preservative, 72 hour) | MBC test growth score (Pseudomonas putida (K); 100% preservative, 48 hour) | MBC test growth score (Pseudomonas putida (K); 100% preservative, 72 hour)
+: MBC test growth score (Pseudomonas putida (K); 10% preservative, 8 hour) | MBC test growth score (Pseudomonas putida (K); 20% preservative, 8 hour) | MBC test growth score (Pseudomonas putida (K); 30% preservative, 8 hour) | MBC test growth score (Pseudomonas putida (K); 40% preservative, 8 hour) | MBC test growth score (Pseudomonas putida (K); 50% preservative, 8 hour) | MBC test growth score (Pseudomonas putida (K); 60% preservative, 8 hour) | MBC test growth score (Pseudomonas putida (K); 70% preservative, 8 hour) | MBC test growth score (Pseudomonas putida (K); 70% preservative, 24 hour) | MBC test growth score (Pseudomonas putida (K); 80% preservative, 8 hour) | MBC test growth score (Pseudomonas putida (K); 80% preservative, 24 hour) | MBC test growth score (Pseudomonas putida (K); 90% preservative, 8 hour) | MBC test growth score (Pseudomonas putida (K); 90% preservative, 24 hour) | MBC test growth score (Pseudomonas putida (K); 100% preservative, 8 hour) | MBC test growth score (Pseudomonas putida (K); 100% preservative, 24 hour) | MBC test growth score ([1]; 10% preservative, 8 hour) | MBC test growth score ([1]; 10% preservative, 24 hour) | MBC test growth score ([1]; 10% preservative, 48 hour) | MBC test growth score ([1]; 10% preservative, 72 hour) | MBC test growth score ([1]; 20% preservative, 8 hour) | MBC test growth score ([1]; 20% preservative, 24 hour) | MBC test growth score ([1]; 20% preservative, 48 hour) | MBC test growth score ([1]; 20% preservative, 72 hour) | MBC test growth score ([1]; 30% preservative, 8 hour) | MBC test growth score ([1]; 30% preservative, 24 hour) | MBC test growth score ([1]; 30% preservative, 48 hour) | MBC test growth score ([1]; 30% preservative, 72 hour) | MBC test growth score ([1]; 40% preservative, 8 hour) | MBC test growth score ([1]; 40% preservative, 24 hour) | MBC test growth score ([1]; 40% preservative, 48 hour) | MBC test growth score ([1]; 40% preservative, 72 hour) | MBC test growth score ([1]; 50% preservative, 8 hour) | MBC test growth score ([1]; 50% preservative, 24 hour) | MBC test growth score ([1]; 50% preservative, 48 hour) | MBC test growth score ([1]; 50% preservative, 72 hour) | MBC test growth score ([1]; 60% preservative, 8 hour) | MBC test growth score ([1]; 60% preservative, 24 hour) | MBC test growth score ([1]; 60% preservative, 48 hour) | MBC test growth score ([1]; 60% preservative, 72 hour) | MBC test growth score ([1]; 70% preservative, 8 hour) | MBC test growth score ([1]; 70% preservative, 24 hour) | MBC test growth score ([1]; 70% preservative, 48 hour) | MBC test growth score ([1]; 70% preservative, 72 hour) | MBC test growth score ([1]; 80% preservative, 8 hour) | MBC test growth score ([1]; 80% preservative, 24 hour) | MBC test growth score ([1]; 80% preservative, 48 hour) | MBC test growth score ([1]; 80% preservative, 72 hour) | MBC test growth score ([1]; 90% preservative, 8 hour) | MBC test growth score ([1]; 90% preservative, 24 hour) | MBC test growth score ([1]; 90% preservative, 48 hour) | MBC test growth score ([1]; 90% preservative, 72 hour) | MBC test growth score ([1]; 100% preservative, 8 hour) | MBC test growth score ([1]; 100% preservative, 24 hour) | MBC test growth score ([1]; 100% preservative, 48 hour) | MBC test growth score ([1]; 100% preservative, 72 hour)
2: MBC test growth score (Pseudomonas putida (K); 10% preservative, 24 hour)

[N-]=[N+]=[N-] [Sodium Azide, sodium azide]
No kill @ 100%: total kill at % preservative (MBC) (Pseudomonas putida (K); [2]) | total kill at % preservative (MBC) [1, 2]
+: MBC test growth score (Pseudomonas putida (K); 10% preservative, 8 hour) | MBC test growth score (Pseudomonas putida (K); 10% preservative, 24 hour) | MBC test growth score (Pseudomonas putida (K); 10% preservative, 48 hour) | MBC test growth score (Pseudomonas putida (K); 10% preservative, 72 hour) | MBC test growth score (Pseudomonas putida (K); 20% preservative, 8 hour) | MBC test growth score (Pseudomonas putida (K); 20% preservative, 24 hour) | MBC test growth score (Pseudomonas putida (K); 20% preservative, 48 hour) | MBC test growth score (Pseudomonas putida (K); 20% preservative, 72 hour) | MBC test growth score (Pseudomonas putida (K); 30% preservative, 8 hour) | MBC test growth score (Pseudomonas putida (K); 30% preservative, 24 hour) | MBC test growth score (Pseudomonas putida (K); 30% preservative, 48 hour) | MBC test growth score (Pseudomonas putida (K); 30% preservative, 72 hour) | MBC test growth score (Pseudomonas putida (K); 40% preservative, 8 hour) | MBC test growth score (Pseudomonas putida (K); 40% preservative, 24 hour) | MBC test growth score (Pseudomonas putida (K); 40% preservative, 48 hour) | MBC test growth score (Pseudomonas putida (K); 40% preservative, 72 hour) | MBC test growth score (Pseudomonas putida (K); 50% preservative, 8 hour) | MBC test growth score (Pseudomonas putida (K); 50% preservative, 24 hour) | MBC test growth score (Pseudomonas putida (K); 50% preservative, 48 hour) | MBC test growth score (Pseudomonas putida (K); 50% preservative, 72 hour) | MBC test growth score (Pseudomonas putida (K); 60% preservative, 8 hour) | MBC test growth score (Pseudomonas putida (K); 60% preservative, 24 hour) | MBC test growth score (Pseudomonas putida (K); 60% preservative, 48 hour) | MBC test growth score (Pseudomonas putida (K); 60% preservative, 72 hour) | MBC test growth score (Pseudomonas putida (K); 70% preservative, 8 hour) | MBC test growth score (Pseudomonas putida (K); 70% preservative, 24 hour) | MBC test growth score (Pseudomonas putida (K); 70% preservative, 48 hour) | MBC test growth score (Pseudomonas putida (K); 70% preservative, 72 hour) | MBC test growth score (Pseudomonas putida (K); 80% preservative, 8 hour) | MBC test growth score (Pseudomonas putida (K); 80% preservative, 24 hour) | MBC test growth score (Pseudomonas putida (K); 80% preservative, 48 hour) | MBC test growth score (Pseudomonas putida (K); 80% preservative, 72 hour) | MBC test growth score (Pseudomonas putida (K); 90% preservative, 8 hour) | MBC test growth score (Pseudomonas putida (K); 90% preservative, 24 hour) | MBC test growth score (Pseudomonas putida (K); 90% preservative, 48 hour) | MBC test growth score (Pseudomonas putida (K); 90% preservative, 72 hour) | MBC test growth score (Pseudomonas putida (K); 100% preservative, 8 hour) | MBC test growth score (Pseudomonas putida (K); 100% preservative, 24 hour) | MBC test growth score (Pseudomonas putida (K); 100% preservative, 48 hour) | MBC test growth score (Pseudomonas putida (K); 100% preservative, 72 hour) | MBC test growth score ([1]; 10% preservative, 8 hour) | MBC test growth score ([1]; 10% preservative, 24 hour) | MBC test growth score ([1]; 10% preservative, 48 hour) | MBC test growth score ([1]; 10% preservative, 72 hour) | MBC test growth score ([1]; 20% preservative, 8 hour) | MBC test growth score ([1]; 20% preservative, 24 hour) | MBC test growth score ([1]; 20% preservative, 48 hour) | MBC test growth score ([1]; 20% preservative, 72 hour) | MBC test growth score ([1]; 30% preservative, 8 hour) | MBC test growth score ([1]; 30% preservative, 24 hour) | MBC test growth score ([1]; 30% preservative, 48 hour) | MBC test growth score ([1]; 30% preservative, 72 hour) | MBC test growth score ([1]; 40% preservative, 8 hour) | MBC test growth score ([1]; 40% preservative, 24 hour) | MBC test growth score ([1]; 40% preservative, 48 hour) | MBC test growth score ([1]; 40% preservative, 72 hour) | MBC test growth score ([1]; 50% preservative, 8 hour) | MBC test growth score ([1]; 50% preservative, 24 hour) | MBC test growth score ([1]; 50% preservative, 48 hour) | MBC test growth score ([1]; 50% preservative, 72 hour) | MBC test growth score ([1]; 60% preservative, 8 hour) | MBC test growth score ([1]; 60% preservative, 24 hour) | MBC test growth score ([1]; 60% preservative, 48 hour) | MBC test growth score ([1]; 60% preservative, 72 hour) | MBC test growth score ([1]; 70% preservative, 8 hour) | MBC test growth score ([1]; 70% preservative, 24 hour) | MBC test growth score ([1]; 70% preservative, 48 hour) | MBC test growth score ([1]; 70% preservative, 72 hour) | MBC test growth score ([1]; 80% preservative, 8 hour) | MBC test growth score ([1]; 80% preservative, 24 hour) | MBC test growth score ([1]; 80% preservative, 48 hour) | MBC test growth score ([1]; 80% preservative, 72 hour) | MBC test growth score ([1]; 90% preservative, 8 hour) | MBC test growth score ([1]; 90% preservative, 24 hour) | MBC test growth score ([1]; 90% preservative, 48 hour) | MBC test growth score ([1]; 90% preservative, 72 hour) | MBC test growth score ([1]; 100% preservative, 8 hour) | MBC test growth score ([1]; 100% preservative, 24 hour) | MBC test growth score ([1]; 100% preservative, 48 hour) | MBC test growth score ([1]; 100% preservative, 72 hour)

— patent US20140094424A1, “MICROBICIDAL COMPOSITIONS AND METHODS OF PRODUCTION USE THEREOF” (priority 2011, published 2014)
